Measured values reported in article PMC10477861, “Efficient Mining of Anticancer Peptides from Gut Metagenome” (Advanced Science, 2023).

Legend:
Conditions in all cases: 25 µM pACP, 24 h, maintenance medium 1% FBS, ratio of viability to vehicle (PBS), at least three technical repetitions
HT29 = assay: MTT primary screening of anticancer activity, HT29; format: cell-based, Human
In short: (§1)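 MTT read-out of cell survival after a 24 h peptide exposure at 25 µM final c[…]ntration. Medium was switched to 1% FBS maintenance medium at treatment, with cultures at 60% confluence.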

Caco2 = assay: MTT primary screening of anticancer activity, Caco2; format: cell-based, Human
In short: as §1

HCT116 = assay: MTT primary screening of anticancer activity, HCT116; format: cell-based, Human
In short: as §1

CT26 = assay: MTT primary screening of anticancer activity, CT26; format: cell-based, Murine
In short: as §1

MDA-MB-231 = assay: MTT primary screening of anticancer activity, MDA-MB-231; format: cell-based
In short: as §1

MDA-MB-436 = assay: MTT primary screening of anticancer activity, MDA-MB-436; format: cell-based
In short: as §1

MDA-MB-453 = assay: MTT primary screening of anticancer activity, MDA-MB-453; format: cell-based
In short: as §1

MDA-MB-468 = assay: MTT primary screening of anticancer activity, MDA-MB-468; format: cell-based
In short: as §1

SK-BR-3 = assay: MTT primary screening of anticancer activity, SK-BR-3; format: cell-based
In short: as §1

BT474 = assay: MTT primary screening of anticancer activity, BT474; format: cell-based
In short: as §1

T47D = assay: MTT primary screening of anticancer activity, T47D; format: cell-based
In short: as §1

EFM192A = assay: MTT primary screening of anticancer activity, EFM192A; format: cell-based
In short: as §1

B16 = assay: MTT primary screening of anticancer activity, B16; format: cell-based, Mouse
In short: as §1

MCF7 = assay: MTT primary screening of anticancer activity, MCF7; format: cell-based
In short: as §1

Hela = assay: MTT primary screening of anticancer activity, Hela; format: cell-based, Human
In short: as §1

LCC = assay: MTT primary screening of anticancer activity, LCC; format: cell-based
In short: as §1

Sequence | Survival rate of cancer cells in primary screening (HT29) | Survival rate of cancer cells in primary screening (Caco2) | Survival rate of cancer cells in primary screening (HCT116) | Survival rate of cancer cells in primary screening (CT26) | Survival rate of cancer cells in primary screening (MDA-MB-231) | Survival rate of cancer cells in primary screening (MDA-MB-436) | Survival rate of cancer cells in primary screening (MDA-MB-453) | Survival rate of cancer cells in primary screening (MDA-MB-468) | Survival rate of cancer cells in primary screening (SK-BR-3) | Survival rate of cancer cells in primary screening (BT474) | Survival rate of cancer cells in primary screening (T47D) | Survival rate of cancer cells in primary screening (EFM192A) | Survival rate of cancer cells in primary screening (B16) | Survival rate of cancer cells in primary screening (MCF7) | Survival rate of cancer cells in primary screening (Hela) | Survival rate of cancer cells in primary screening (LCC)
RVYKFVDMIGEIGHGRENHIGSGFDERLCRNGACVDCYGKYLCCRTGDYP [pACP1836] | 0.77 | 1.00 | 0.79 | 1.00 | 1.00 | 1.00 | 1.00 | 0.70 | 1.00 | 1.00 | 1.00 | 1.00 | 1.00 | 1.00 | 1.00 | 1.00
SCRNGKGISSGDRPGKAKTGISLEIGKCSYRNKGKSAENSSVAVV [pACP1869] | 1.00 | 1.00 | 1.00 | 1.00 | 1.00 | 1.00 | 1.00 | 1.00 | 1.00 | 1.00 | 0.68 | 1.00 | 0.79 | 1.00 | 1.00 | 1.00
SPLKGGGLLPPAGFCPRRVLCRLPTGWKKGKPSGQMPLFRIWRKVMVMK [pACP1985] | 1.00 | 1.00 | 1.00 | 0.77 | 0.10 | 0.0378 | 0.08 | 0.31 | 0.24 | 0.05 | 0.15 | 0.07 | 0.79 | 0.19 | 0.0132 | 1.00
SVGKRCKMGKNYKTVPALKGIPLAGGTYNTRNRSGSG [pACP2037] | 1.00 | 1.00 | 1.00 | 1.00 | 1.00 | 1.00 | 1.00 | 1.00 | 1.00 | 1.00 | 0.74 | 1.00 | 0.78 | 1.00 | 1.00 | 1.00
VAHGLDLLDGVVAEGVAAKGDDNTIGLAKRLRHCWNPFCKRPTTH [pACP2160] | 1.00 | 1.00 | 1.00 | 1.00 | 1.00 | 1.00 | 1.00 | 0.70 | 1.00 | 1.00 | 0.79 | 1.00 | 0.80 | 1.00 | 1.00 | 1.00
YCIFFLDKGFPGILADFLCLAGKRTIKLKALKQLIRQQVY [pACP2286] | 1.00 | 1.00 | 1.00 | 1.00 | 1.00 | 1.00 | 1.00 | 1.00 | 1.00 | 0.72 | 0.63 | 1.00 | 0.77 | 0.76 | 1.00 | 1.00
YRKCDTAGGLSKLCVAEKDIKIIWKYGGR [pACP2334] | 1.00 | 1.00 | 1.00 | 1.00 | 1.00 | 1.00 | 1.00 | 1.00 | 1.00 | 1.00 | 0.78 | 1.00 | 0.76 | 1.00 | 1.00 | 1.00
YSYGYVISSCKKAGGGYAIRYVALHYVQGTKEGGGRQ [pACP2344] | 1.00 | 1.00 | 1.00 | 1.00 | 1.00 | 1.00 | 1.00 | 1.00 | 1.00 | 0.68 | 1.00 | 1.00 | 0.76 | 1.00 | 1.00 | 1.00
